How the values were obtained:
Format in all cases: cell-based
[1] = target: proteins of U3A human fibrosarcoma cells (4462 proteins detected) (Homo sapiens, UniProt A0MZ66); settings: protein KIAA1598; U3A, 10 μM, 2 h
[2] = target: proteins of U3A human fibrosarcoma cells (4462 proteins detected) (Homo sapiens, UniProt O00399); settings: protein DCTN6, U3A cells
[3] = target: proteins of U3A human fibrosarcoma cells (4462 proteins detected) (Homo sapiens, UniProt O15042); settings: protein U2SURP; U3A cells
[4] = target: proteins of U3A human fibrosarcoma cells (4462 proteins detected) (Homo sapiens, UniProt O60573); settings: protein EIF4E2; soluble abundance after heat, U3A cells
[5] = target: proteins of U3A human fibrosarcoma cells (4462 proteins detected) (Homo sapiens, UniProt O75976); settings: protein CPD; soluble abundance after heat, U3A cells
[6] = target: proteins of U3A human fibrosarcoma cells (4462 proteins detected) (Homo sapiens, UniProt P18206); settings: protein VCL; soluble abundance after heat, U3A cells
[7] = target: proteins of U3A human fibrosarcoma cells (4462 proteins detected) (Homo sapiens, UniProt P23528); settings: protein CFL1, U3A cells
Chain of proteins of U3A human fibrosarcoma cells (4462 proteins detected) (Homo sapiens, UniProt P23528) (P23528 whole entry): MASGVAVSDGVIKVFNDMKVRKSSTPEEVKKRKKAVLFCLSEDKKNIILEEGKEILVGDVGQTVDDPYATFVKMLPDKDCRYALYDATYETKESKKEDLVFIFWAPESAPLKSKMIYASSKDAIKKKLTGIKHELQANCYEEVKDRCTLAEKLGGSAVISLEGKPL

[8] = target: proteins of U3A human fibrosarcoma cells (4462 proteins detected) (Homo sapiens, UniProt P39748); settings: protein FEN1; U3A, 10 μM, 2 h
[9] = target: proteins of U3A human fibrosarcoma cells (4462 proteins detected) (Homo sapiens, UniProt P43243); settings: protein MATR3; soluble abundance after heat, U3A cells
Chain of proteins of U3A human fibrosarcoma cells (4462 proteins detected) (Homo sapiens, UniProt P43243) (P43243 whole entry): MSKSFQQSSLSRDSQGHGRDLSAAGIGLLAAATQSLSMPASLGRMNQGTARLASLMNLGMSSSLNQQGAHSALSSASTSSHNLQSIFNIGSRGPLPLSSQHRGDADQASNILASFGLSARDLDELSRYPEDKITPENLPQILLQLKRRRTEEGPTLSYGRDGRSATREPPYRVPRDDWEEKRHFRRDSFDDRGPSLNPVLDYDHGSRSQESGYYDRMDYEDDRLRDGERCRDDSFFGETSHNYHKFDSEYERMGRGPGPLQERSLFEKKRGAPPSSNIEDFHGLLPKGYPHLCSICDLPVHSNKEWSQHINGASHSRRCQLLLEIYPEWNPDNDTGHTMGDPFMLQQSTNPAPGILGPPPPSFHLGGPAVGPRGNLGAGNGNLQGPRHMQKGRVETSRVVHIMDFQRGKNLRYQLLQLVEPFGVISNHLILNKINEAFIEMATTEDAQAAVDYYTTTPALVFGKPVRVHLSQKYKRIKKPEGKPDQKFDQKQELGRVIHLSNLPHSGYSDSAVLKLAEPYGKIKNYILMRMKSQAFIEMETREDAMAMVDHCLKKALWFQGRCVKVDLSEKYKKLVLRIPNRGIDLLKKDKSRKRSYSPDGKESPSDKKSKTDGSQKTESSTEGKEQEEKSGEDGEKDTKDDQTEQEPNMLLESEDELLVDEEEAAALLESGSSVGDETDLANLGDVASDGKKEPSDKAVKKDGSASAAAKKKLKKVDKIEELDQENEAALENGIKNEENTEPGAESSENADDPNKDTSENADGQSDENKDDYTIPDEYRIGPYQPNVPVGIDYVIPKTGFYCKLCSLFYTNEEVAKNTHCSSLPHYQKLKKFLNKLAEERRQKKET

[10] = target: proteins of U3A human fibrosarcoma cells (4462 proteins detected) (Homo sapiens, UniProt P51114); settings: protein FXR1; U3A cells
[11] = target: proteins of U3A human fibrosarcoma cells (4462 proteins detected) (Homo sapiens, UniProt P52823); settings: protein STC1; U3A, 10 μM, 2 h
[12] = target: proteins of U3A human fibrosarcoma cells (4462 proteins detected) (Homo sapiens, UniProt P62857); settings: protein RPS28, U3A cells
[13] = target: proteins of U3A human fibrosarcoma cells (4462 proteins detected) (Homo sapiens, UniProt Q13185); settings: protein CBX3, U3A cells
Chain of proteins of U3A human fibrosarcoma cells (4462 proteins detected) (Homo sapiens, UniProt Q13185) (Q13185 whole entry): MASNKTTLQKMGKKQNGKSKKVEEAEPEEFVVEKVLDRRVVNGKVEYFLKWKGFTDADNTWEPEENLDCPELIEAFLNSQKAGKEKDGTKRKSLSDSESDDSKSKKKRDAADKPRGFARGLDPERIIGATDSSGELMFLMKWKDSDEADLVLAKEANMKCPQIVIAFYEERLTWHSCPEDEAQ

[14] = target: proteins of U3A human fibrosarcoma cells (4462 proteins detected) (Homo sapiens, UniProt Q14669); settings: protein TRIP12, U3A cells
[15] = target: proteins of U3A human fibrosarcoma cells (4462 proteins detected) (Homo sapiens, UniProt Q15043); settings: protein SLC39A14; soluble abundance after heat, U3A cells
[16] = target: proteins of U3A human fibrosarcoma cells (4462 proteins detected) (Homo sapiens, UniProt Q27J81); settings: protein INF2, U3A cells
[17] = target: proteins of U3A human fibrosarcoma cells (4462 proteins detected) (Homo sapiens, UniProt Q4KWH8); settings: protein PLCH1; U3A, 10 μM, 2 h
Chain of proteins of U3A human fibrosarcoma cells (4462 proteins detected) (Homo sapiens, UniProt Q4KWH8) (Q4KWH8 whole entry): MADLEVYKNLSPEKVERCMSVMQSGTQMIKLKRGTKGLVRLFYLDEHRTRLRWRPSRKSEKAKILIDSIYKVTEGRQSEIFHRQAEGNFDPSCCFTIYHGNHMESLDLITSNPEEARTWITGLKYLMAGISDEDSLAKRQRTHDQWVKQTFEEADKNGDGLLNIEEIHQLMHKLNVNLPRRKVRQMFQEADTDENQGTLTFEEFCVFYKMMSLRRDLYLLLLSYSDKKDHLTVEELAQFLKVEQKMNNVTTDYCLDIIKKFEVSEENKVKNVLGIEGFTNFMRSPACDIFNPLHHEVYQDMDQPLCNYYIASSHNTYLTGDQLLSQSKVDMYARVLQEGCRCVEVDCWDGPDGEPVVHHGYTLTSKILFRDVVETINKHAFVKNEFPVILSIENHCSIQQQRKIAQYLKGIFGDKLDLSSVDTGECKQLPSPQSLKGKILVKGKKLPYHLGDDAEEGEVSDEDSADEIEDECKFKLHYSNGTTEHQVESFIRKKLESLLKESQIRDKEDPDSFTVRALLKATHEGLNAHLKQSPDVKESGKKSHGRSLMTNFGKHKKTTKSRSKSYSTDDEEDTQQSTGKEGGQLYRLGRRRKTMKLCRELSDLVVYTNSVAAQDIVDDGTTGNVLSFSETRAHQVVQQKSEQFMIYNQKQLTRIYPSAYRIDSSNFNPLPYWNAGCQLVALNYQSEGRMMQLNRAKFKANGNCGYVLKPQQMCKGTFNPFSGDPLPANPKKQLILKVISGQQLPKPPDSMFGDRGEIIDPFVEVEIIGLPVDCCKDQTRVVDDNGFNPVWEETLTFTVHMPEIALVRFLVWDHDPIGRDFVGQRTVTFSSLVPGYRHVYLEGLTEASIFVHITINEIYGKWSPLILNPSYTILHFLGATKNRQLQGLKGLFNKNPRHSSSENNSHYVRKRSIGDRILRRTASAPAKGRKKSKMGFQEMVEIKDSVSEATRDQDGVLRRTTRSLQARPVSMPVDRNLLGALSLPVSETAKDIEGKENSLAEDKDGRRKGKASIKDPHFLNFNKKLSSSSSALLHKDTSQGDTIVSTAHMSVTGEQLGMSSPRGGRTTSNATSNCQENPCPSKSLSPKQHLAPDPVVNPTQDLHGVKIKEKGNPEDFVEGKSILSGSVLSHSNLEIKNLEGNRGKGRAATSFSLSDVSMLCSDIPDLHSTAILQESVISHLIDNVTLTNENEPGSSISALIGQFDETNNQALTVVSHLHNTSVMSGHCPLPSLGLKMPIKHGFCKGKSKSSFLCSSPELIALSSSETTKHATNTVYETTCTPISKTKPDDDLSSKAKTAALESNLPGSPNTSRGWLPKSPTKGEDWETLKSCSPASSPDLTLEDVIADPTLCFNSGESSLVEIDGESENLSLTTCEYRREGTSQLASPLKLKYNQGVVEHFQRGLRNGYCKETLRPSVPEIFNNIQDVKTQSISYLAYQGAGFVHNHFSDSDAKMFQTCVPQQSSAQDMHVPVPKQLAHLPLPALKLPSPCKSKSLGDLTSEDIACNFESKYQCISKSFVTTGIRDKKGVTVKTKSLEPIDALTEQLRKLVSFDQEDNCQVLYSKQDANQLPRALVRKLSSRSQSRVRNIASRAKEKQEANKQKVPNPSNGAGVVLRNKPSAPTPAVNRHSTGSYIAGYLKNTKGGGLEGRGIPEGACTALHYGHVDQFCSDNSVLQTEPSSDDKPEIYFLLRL

[18] = target: proteins of U3A human fibrosarcoma cells (4462 proteins detected) (Homo sapiens, UniProt Q5VW36); settings: protein FOCAD; U3A cells
[19] = target: proteins of U3A human fibrosarcoma cells (4462 proteins detected) (Homo sapiens, UniProt Q6YHU6); settings: protein THADA; soluble abundance after heat, U3A cells
[20] = target: proteins of U3A human fibrosarcoma cells (4462 proteins detected) (Homo sapiens, UniProt Q8TAA5); settings: protein GRPEL2; U3A cells
[21] = target: proteins of U3A human fibrosarcoma cells (4462 proteins detected) (Homo sapiens, UniProt Q8WUR7); settings: protein C15orf40, U3A cells
[22] = target: proteins of U3A human fibrosarcoma cells (4462 proteins detected) (Homo sapiens, UniProt Q96D46); settings: protein NMD3; soluble abundance after heat, U3A cells
Chain of proteins of U3A human fibrosarcoma cells (4462 proteins detected) (Homo sapiens, UniProt Q96D46) (Q96D46 whole entry): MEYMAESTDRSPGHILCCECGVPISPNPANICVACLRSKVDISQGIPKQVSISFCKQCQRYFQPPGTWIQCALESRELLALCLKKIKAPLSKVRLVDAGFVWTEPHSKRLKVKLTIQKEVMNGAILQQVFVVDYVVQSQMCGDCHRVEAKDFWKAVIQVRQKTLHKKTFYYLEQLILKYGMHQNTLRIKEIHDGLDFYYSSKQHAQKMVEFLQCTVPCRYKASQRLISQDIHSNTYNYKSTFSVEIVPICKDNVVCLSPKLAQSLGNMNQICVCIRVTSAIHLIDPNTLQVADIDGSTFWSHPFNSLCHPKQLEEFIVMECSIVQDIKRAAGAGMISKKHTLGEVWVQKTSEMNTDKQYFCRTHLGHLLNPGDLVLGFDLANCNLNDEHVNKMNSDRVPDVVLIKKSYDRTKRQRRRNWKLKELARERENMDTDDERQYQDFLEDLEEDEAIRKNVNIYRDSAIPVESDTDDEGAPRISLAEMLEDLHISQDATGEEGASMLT

[23] = target: proteins of U3A human fibrosarcoma cells (4462 proteins detected) (Homo sapiens, UniProt Q9NNW5); settings: protein WDR6, U3A cells
[24] = target: proteins of U3A human fibrosarcoma cells (4462 proteins detected) (Homo sapiens, UniProt Q9P2R7); settings: protein SUCLA2; U3A, 10 μM, 2 h
[25] = target: proteins of U3A human fibrosarcoma cells (4462 proteins detected) (Homo sapiens, UniProt Q9UH65); settings: protein SWAP70; soluble abundance after heat, U3A cells
Chain of proteins of U3A human fibrosarcoma cells (4462 proteins detected) (Homo sapiens, UniProt Q9UH65) (Q9UH65 whole entry): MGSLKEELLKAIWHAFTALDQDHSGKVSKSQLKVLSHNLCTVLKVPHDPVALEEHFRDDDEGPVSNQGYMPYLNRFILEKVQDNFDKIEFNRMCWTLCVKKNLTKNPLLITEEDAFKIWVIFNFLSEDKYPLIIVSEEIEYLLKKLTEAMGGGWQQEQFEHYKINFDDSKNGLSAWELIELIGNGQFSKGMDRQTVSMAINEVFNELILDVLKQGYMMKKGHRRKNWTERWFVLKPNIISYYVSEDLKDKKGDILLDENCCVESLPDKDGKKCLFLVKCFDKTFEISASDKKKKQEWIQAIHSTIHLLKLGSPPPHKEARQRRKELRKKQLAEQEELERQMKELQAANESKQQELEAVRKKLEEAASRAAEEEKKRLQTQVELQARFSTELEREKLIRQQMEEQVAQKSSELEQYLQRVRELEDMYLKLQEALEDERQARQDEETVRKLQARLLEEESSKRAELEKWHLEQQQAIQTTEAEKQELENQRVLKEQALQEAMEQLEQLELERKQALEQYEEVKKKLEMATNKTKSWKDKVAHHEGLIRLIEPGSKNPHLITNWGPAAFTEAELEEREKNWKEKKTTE

[26] = target: proteins of U3A human fibrosarcoma cells (4462 proteins detected) (Homo sapiens, UniProt Q9Y2P8); settings: protein RCL1; U3A cells
[27] = target: proteins of U3A human fibrosarcoma cells (4462 proteins detected) (Homo sapiens, UniProt Q9Y478); settings: protein PRKAB1; U3A cells
Chain of proteins of U3A human fibrosarcoma cells (4462 proteins detected) (Homo sapiens, UniProt Q9Y478) (Q9Y478 whole entry): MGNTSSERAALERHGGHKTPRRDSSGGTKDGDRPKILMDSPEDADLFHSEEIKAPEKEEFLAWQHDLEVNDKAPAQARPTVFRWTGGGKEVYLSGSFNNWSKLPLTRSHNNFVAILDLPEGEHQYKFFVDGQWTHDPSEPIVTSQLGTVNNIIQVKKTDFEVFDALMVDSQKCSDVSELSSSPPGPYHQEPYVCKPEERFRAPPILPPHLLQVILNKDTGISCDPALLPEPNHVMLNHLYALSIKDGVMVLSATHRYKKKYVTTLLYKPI

[28] = target: proteins of U3A human fibrosarcoma cells (4462 proteins detected) (Homo sapiens, UniProt Q9Y5A9); settings: protein YTHDF2; U3A cells
[29] = target: proteins of U3A human fibrosarcoma cells (4462 proteins detected) (Homo sapiens, UniProt Q9Y608); settings: protein LRRFIP2, U3A cells
Chain of proteins of U3A human fibrosarcoma cells (4462 proteins detected) (Homo sapiens, UniProt Q9Y608) (Q9Y608 whole entry): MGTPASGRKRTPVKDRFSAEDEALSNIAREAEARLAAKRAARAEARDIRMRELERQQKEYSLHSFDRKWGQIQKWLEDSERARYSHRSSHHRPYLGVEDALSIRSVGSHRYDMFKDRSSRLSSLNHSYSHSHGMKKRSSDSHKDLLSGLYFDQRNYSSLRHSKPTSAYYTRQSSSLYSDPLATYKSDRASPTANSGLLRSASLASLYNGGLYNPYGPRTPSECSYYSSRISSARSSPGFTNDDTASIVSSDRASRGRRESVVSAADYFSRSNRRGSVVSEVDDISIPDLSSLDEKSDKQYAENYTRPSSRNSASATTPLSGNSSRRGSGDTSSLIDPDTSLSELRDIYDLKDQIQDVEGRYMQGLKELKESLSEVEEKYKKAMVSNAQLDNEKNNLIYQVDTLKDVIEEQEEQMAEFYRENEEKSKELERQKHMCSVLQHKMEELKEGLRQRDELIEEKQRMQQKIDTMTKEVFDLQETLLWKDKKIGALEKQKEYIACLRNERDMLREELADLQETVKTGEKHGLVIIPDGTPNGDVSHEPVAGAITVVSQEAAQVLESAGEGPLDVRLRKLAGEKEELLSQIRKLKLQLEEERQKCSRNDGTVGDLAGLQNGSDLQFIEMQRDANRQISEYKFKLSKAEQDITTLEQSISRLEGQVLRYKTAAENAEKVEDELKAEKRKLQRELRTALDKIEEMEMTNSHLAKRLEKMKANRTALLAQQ

CCc1nc(N)nc(N)c1-c1ccc(Cl)cc1 [pyrimethamine]
Log2 (PYR/DMSO), KIAA1598 [1]: -0.28 | Log2 (PYR/DMSO) [2]: -0.04 | Log2 (PYR/DMSO) [3]: 0.18 | Log2 (PYR/DMSO) [4]: 0.15 | Log2 (PYR/DMSO) [5]: 0.14 | Log2 (PYR/DMSO) [6]: 0.15 | Log2 (PYR/DMSO) [7]: -0.04 | Log2 (PYR/DMSO), FEN1 [8]: 0.23 | Log2 (PYR/DMSO) [9]: 0.14 | Log2 (PYR/DMSO) [10]: 0.17 | Log2 (PYR/DMSO), STC1 [11]: 0.25 | Log2 (PYR/DMSO) [12]: -0.05 | Log2 (PYR/DMSO) [13]: -0.05 | Log2 (PYR/DMSO) [14]: -0.04 | Log2 (PYR/DMSO) [15]: 0.14 | Log2 (PYR/DMSO) [16]: -0.04 | Log2 (PYR/DMSO), PLCH1 [17]: 0.32 | Log2 (PYR/DMSO) [18]: 0.20 | Log2 (PYR/DMSO) [19]: 0.15 | Log2 (PYR/DMSO) [20]: 0.18 | Log2 (PYR/DMSO) [21]: -0.03 | Log2 (PYR/DMSO) [22]: 0.13 | Log2 (PYR/DMSO) [23]: -0.04 | Log2 (PYR/DMSO), SUCLA2 [24]: 0.23 | Log2 (PYR/DMSO) [25]: 0.14 | Log2 (PYR/DMSO) [26]: 0.21 | Log2 (PYR/DMSO) [27]: 0.23 | Log2 (PYR/DMSO) [28]: 0.16 | Log2 (PYR/DMSO) [29]: -0.04

Reference: paper PMC8800111 (The Journal of Biological Chemistry, 2021)
